Laboratory results reported in ChEMBL document CHEMBL1201862, “PubChem BioAssay data set” (2004).
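In this assay, cells in 96-well plates receive the compound at five concentrations for 48 hours. Endpoints are linearly interpolated between the surrounding concentrations. The concentration for 50% growth inhibition is given as GI50.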 Active and inactive are the calls of the source. Rule as the data show it: active = GI50 up to about 1.1 µM and inactive = higher.

How the values were obtained:
Experiment in all cases: NCI-60 cell line screen, 48 h
[1] = tested on: SW-620
[2] = tested on: SK-MEL-2
[3] = tested on: A549
[4] = tested on: OVCAR-8
[5] = tested on: NCI-H460
[6] = tested on: ACHN
[7] = tested on: SK-MEL-5
[8] = tested on: HOP-92
[9] = tested on: SN12C
[10] = tested on: K562
[11] = tested on: SF-295
[12] = tested on: SK-OV-3
[13] = tested on: NCI-H226
[14] = tested on: A498
[15] = tested on: T47D
[16] = tested on: COLO 205
[17] = tested on: HCT-116
[18] = tested on: MDA-MB-231
[19] = tested on: SR

Measured: GI50

Cc1ccsc1C(=S)Nc1ccc(Cl)c(C(=O)OC(C(C)C)C(C)C)c1
inactive: [1] 18.9 µM | [2] 11.7 µM | [3] 12.2 µM | [4] 21.3 µM | [5] 23.7 µM | [6] 25.9 µM | [7] 15.4 µM | [8] 16.3 µM | [9] 24.8 µM | [10] 3.97 µM | [11] 21.9 µM | [12] 28.2 µM | [13] 29 µM | [14] 27.2 µM | [15] 6.9 µM | [16] 12.9 µM | [17] 12.1 µM | [18] 17.2 µM

O=C(O)CCSc1nnc(COc2ccc(Cl)cc2)n1-c1ccccc1
inactive: [1] > 100 µM | [2] > 100 µM | [3] > 100 µM | [4] > 100 µM | [5] > 100 µM | [6] > 100 µM | [8] > 100 µM | [9] > 100 µM | [10] > 100 µM | [11] > 100 µM | [12] > 100 µM | [13] > 100 µM | [14] > 100 µM | [15] > 100 µM | [16] > 100 µM | [17] > 100 µM | [18] > 100 µM

C[C@H](C1CC2(C)OC2(C)C(=O)O1)[C@H]1CC[C@H]2[C@@H]3[C@@H]4O[C@@H]4[C@@]4(O)CC=CC(=O)[C@]4(C)[C@H]3CC[C@]12C (stereo not given in full)
inactive: [1] > 50 µM | [2] > 50 µM | [3] > 50 µM | [4] > 50 µM | [5] > 50 µM | [6] > 50 µM | [7] > 50 µM | [8] > 50 µM | [9] > 50 µM | [10] > 50 µM | [11] > 50 µM | [12] > 50 µM | [13] > 50 µM | [14] > 50 µM | [15] 24.9 µM | [16] > 50 µM | [17] > 50 µM | [18] > 50 µM

NNS(=O)(=O)c1ccc(/C=C2\NC(=O)NC2=O)cc1
inactive: [1] > 100 µM | [2] 37.9 µM | [3] > 100 µM | [4] > 100 µM | [6] > 100 µM | [7] > 100 µM | [8] > 100 µM | [9] > 100 µM | [10] > 100 µM | [11] > 100 µM | [12] > 100 µM | [13] > 100 µM | [14] > 100 µM | [15] > 100 µM | [16] > 100 µM | [17] > 100 µM | [18] > 100 µM

CC12CCC(C(=O)n3c1nc1ccccc13)C(C)(C)O2 (stereo not given)
inactive: [1] > 100 µM | [2] > 100 µM | [3] > 100 µM | [4] > 100 µM | [19] > 100 µM | [6] > 100 µM | [7] 49 µM | [8] > 100 µM | [9] > 100 µM | [10] > 100 µM | [11] > 100 µM | [12] > 100 µM | [13] > 100 µM | [15] > 100 µM | [16] > 100 µM | [17] > 100 µM | [18] > 100 µM

CC1CC(C#N)=C2NCCCCN2C1=O (stereo not given)
inactive: [1] > 100 µM | [2] > 100 µM | [3] > 100 µM | [4] > 100 µM | [5] > 100 µM | [19] > 100 µM | [7] > 100 µM | [9] > 100 µM | [10] > 100 µM | [11] > 100 µM | [12] > 100 µM | [13] > 100 µM | [15] > 100 µM | [16] > 100 µM | [18] > 100 µM

CC1CNC(c2ccc(CN3CCC(C4CCN(Cc5ccc(C6=NC(C)CN6)cc5)CC4)CC3)cc2)=N1 (stereo not given)
inactive: [1] 18.2 µM | [2] 19.1 µM | [3] 20.6 µM | [4] 29.6 µM | [5] 18.5 µM | [6] 26.5 µM | [7] 36.2 µM | [8] 75.7 µM | [9] 20.1 µM | [10] 16.7 µM | [11] 17 µM | [12] 16.3 µM | [14] 29.2 µM | [15] 19.5 µM | [16] 18.6 µM | [17] 17.9 µM | [18] 17.7 µM

O=C1CCCc2cc3c(cc21)CCC3C(=O)O (stereo not given)
inactive: [1] > 100 µM | [2] > 100 µM | [3] > 100 µM | [4] > 100 µM | [5] > 100 µM | [19] > 100 µM | [6] > 100 µM | [7] > 100 µM | [9] > 100 µM | [10] > 100 µM | [11] > 100 µM | [12] > 100 µM | [13] > 100 µM | [15] > 100 µM | [16] > 100 µM | [17] > 100 µM | [18] > 100 µM

CC(C)C(=O)CC(Sc1ccc(N)cc1)c1ccccc1 (stereo not given)
inactive: [1] 16.9 µM | [2] 23.3 µM | [3] 28.1 µM | [4] 25.6 µM | [5] 23.2 µM | [6] 20 µM | [7] 20.4 µM | [9] 28.1 µM | [10] 25.4 µM | [11] 25.6 µM | [12] 26.4 µM | [13] 46.5 µM | [14] 36.2 µM | [15] 21.9 µM | [16] 33.2 µM | [17] 13.3 µM | [18] 22.3 µM

O=[N+]([O-])c1ccc2c(c1)nc1n2C(c2c(F)cccc2F)SC1 (stereo not given)
inactive: [1] > 100 µM | [2] > 100 µM | [3] > 100 µM | [4] > 100 µM | [5] > 100 µM | [19] > 100 µM | [6] > 100 µM | [7] > 100 µM | [8] 62.1 µM | [9] > 100 µM | [10] > 100 µM | [11] > 100 µM | [12] > 100 µM | [15] > 100 µM | [16] > 100 µM | [17] > 100 µM | [18] > 100 µM

Cc1ccc2oc3c(c(Br)c(Br)n3C)c(=O)c2c1
inactive: [1] > 100 µM | [2] 25.8 µM | [3] 20.5 µM | [4] 17.4 µM | [6] 16.7 µM | [7] 27.7 µM | [8] 18.1 µM | [9] 18.3 µM | [10] > 100 µM | [11] 20.4 µM | [13] 15.6 µM | [14] 20.9 µM | [15] 41.5 µM | [16] > 100 µM | [17] 15.7 µM | [18] 20.3 µM

COc1ccc2c(c1)[C@@]13CCCC[C@H]1[C@@H](C2)N(C)CC3=O
inactive: [2] 25.2 µM | [3] 19.9 µM | [4] 19.3 µM | [5] 20.8 µM | [19] 12.4 µM | [6] 16.6 µM | [7] 22.6 µM | [8] 13.6 µM | [9] 21.4 µM | [10] 28 µM | [11] 64.9 µM | [12] 16 µM | [13] 21.3 µM | [15] 17.5 µM | [16] 17.3 µM | [17] 16.2 µM | [18] 18.5 µM

COc1c(-c2nc3ccc(N4CCN(C)CC4)nc3[nH]2)cc(OC)c2c1nc(COC(C)=O)n2C
inactive: [2] 33 µM | [3] > 100 µM | [4] > 100 µM | [6] > 100 µM | [7] > 100 µM | [8] > 100 µM | [9] > 100 µM | [10] > 100 µM | [11] > 100 µM | [12] > 100 µM | [13] > 100 µM | [14] > 100 µM | [15] > 100 µM | [16] 92.7 µM | [17] 86.3 µM | [18] 51.3 µM

CC(=O)NC1C(OCC(=O)NC(C)C(=O)NC(CCC(=O)NCCCCCNc2ccc([N+](=O)[O-])c3[nH]c4ccccc4c(=O)c23)C(N)=O)C(O)C(CO)OC1(C)OCc1ccccc1 (stereo not given)
inactive: [1] > 50 µM | [2] > 50 µM | [3] > 50 µM | [4] > 50 µM | [5] 18.4 µM | [6] 31.6 µM | [7] > 50 µM | [9] 19.6 µM | [10] 4.5 µM | [11] 45.4 µM | [12] 39.1 µM | [13] > 50 µM | [14] > 50 µM | [15] > 50 µM | [16] > 50 µM | [17] 19.4 µM | [18] 12 µM

CN(c1ccccc1Cl)S(=O)(=O)c1ccc([N+](=O)[O-])cc1
inactive: [1] > 100 µM | [2] > 100 µM | [3] > 100 µM | [4] > 100 µM | [5] > 100 µM | [19] > 100 µM | [6] > 100 µM | [7] > 100 µM | [9] > 100 µM | [10] > 100 µM | [11] > 100 µM | [12] > 100 µM | [13] > 100 µM | [15] > 100 µM | [16] > 100 µM | [17] > 100 µM | [18] > 100 µM

CC[C@]1(Cc2ccc(OC)c(OC)c2)[C@@H]2C[C@@H](C(=O)OC)ON2O[C@H](OC2CCCC2(c2ccccc2)c2ccccc2)[C@@H]1OC(C)=O (stereo not given in full)
inactive: [1] > 100 µM | [2] > 100 µM | [3] > 100 µM | [4] > 100 µM | [5] > 100 µM | [19] 66.7 µM | [6] > 100 µM | [7] > 100 µM | [9] > 100 µM | [10] > 100 µM | [11] > 100 µM | [12] > 100 µM | [13] > 100 µM | [15] > 100 µM | [16] > 100 µM | [17] > 100 µM | [18] > 100 µM
